We go through one compound from patent US12319752B2, “Heparin-binding cationic peptide self-assembling peptide amphiphiles useful against drug-resistant bacteria” (priority 2016, dated 2025).

Residues, ends and D or L forms follow the SMILES beside them. *: point of attachment. Palmitoyl = CCCCCCCCCCCCCCCC(=O)*

A short description of this data set: Critical micelle concentration (CMC) by Nile Red fluorescence. To be noted: in water, Nile Red dye. In kind it is physicochemical. From the text: First, the solvatochromic probe Nile Red was used to examine the threshold concentrations for the spontaneous aggregation induced by hydrophobic collapse of peptides. Once the supramolecular structures of PA self-assemble in water at their CMC, the Nile Red dye can be solubilized in the hydrophobic cores of the PA assemblies, displaying an enhanced fluorescent intensity. Consequently, the fluorescent intensity maxima of Nile Red were at the emission wavelength of 630 nm in the solutions of CVK-PA and ACA-PA, whereas the emission wavelength was located at 660 nm in the Bi-Cardin peptide solutions (FIG. 4A-4D). […] To estimate the CMC of each peptide, the corrected fluorescent intensity (If,corrected) of Nile Red at its emission wavelength for each peptide solution was calculated using equation: If,corrected=If,sample−If,water, where If,sample is the average of the triplicate fluorescent intensity measurements in the sample and If,water is the fluorescent intensity of Nile Red in water without the peptide. The measurements of the corrected fluorescent intensity were plotted against the log 10 values of concentration of each peptide, then the CMC value was determined at the point of intersection of the plot of log peptide concentration and fluorescent intensity of Nile Red.

`CCCCCCCCCCCCCCCC(=O)N[C@H](C(=O)N[C@H](C(=O)N[C@H](C(=O)N[C@H](C(=O)N[C@@H](CCCCN)C(=O)N[C@@H](CCCCN)C(=O)N[C@@H](CCCCN)C(=O)N[C@@H](CCCCN)C(=O)NCC(=O)N[C@@H](C)C(=O)N[C@@H](CCCCN)C(=O)N[C@@H](CCCCN)C(=O)N[C@@H](C)C(=O)N[C@@H](CCCNC(=N)N)C(=O)N[C@@H](C)C(=O)N[C@@H](C)C(=O)N[C@@H](CCCCN)C(=O)N[C@@H](CCCCN)C(=O)N[C@@H](C)C(=O)N[C@@H](CCCNC(=N)N)C(=O)N[C@@H](C)C(=O)O)C(C)C)C(C)C)C(C)C)C(C)C` [ACA-PA, C16-V4K4G(AKKARA)2 (SEQ ID NO: 7)] (Palmitoyl-VVVVKKKKGAKKARAAKKARA-OH; N-terminus and C-terminus assumed): the CMC is 45.7 µM.
